Three molecules from patent US6426065B1 (Clairol Incorporated, priority 2000, dated 2002) can be followed below.

Series [1] can be described thus: Permanent wave evaluation of waving lotions on hair tresses (waving efficiency). Conditions: for Percent Waving Efficiency / Tress Length (cm) Lt: amine 0.75M with 13.2 wt. % (0.8M) GMT, pH 7.5, 37° C. for 20 minutes; for Tress Length (cm) Lt: length of permed hair measured in the water, shorter = tighter curl. The text has this: The pH was adjusted using a 10 wt. % HCl solution. Tresses were rolled onto mandrels and evaluated using the permanent wave evaluation procedure that follows. Procedure for Permanent Wave Evaluation […] 1. A bundle of 16 inch long medium virgin brown hair was secured with beeswax by dipping approximately 2 inches of the root end of the bundled hair into melted wax for 5 seconds. When the wax is cool to the touch, it is shaped into a square and allowed to harden. 2. Hair is broken into smaller bundles, washed with a 10 wt. % sodium lauryl sulfate solution and then rinsed. 3. Hair is sectioned into tresses of 45 hairs and the waxed end is re-waxed to further secure the tress. The wax is allowed to dry, and a piece of tape is wrapped around it to provide a writing surface. […] 4. An 8 cm long, 1.25 cm diameter spiral rod with 25 turns is used. The waxed end of the hair is secured between the 9th and 10th turns using a rubber band. […] 5. A piece of tape, width 2.5 cm, is wrapped sideways around the bottom edge of the hair, covering the bottom 2.5 cm. A 3.4 g alligator clip is used to secure the tape. Using a piece of copper wire as a hook, a 6 oz. weight is hung from the tape at the bottom of the hair. The hair is rolled around the rod, using the weight to provide equal tension during rolling. The weight is removed after rolling, and the bottom tape is secured around the rod with a piece of Tygon tubing. 6. […] The solution completely covers the hair. The test tube is placed in a constant temperature water bath at 37° C. for 20 minutes. 7. The rod is removed and rinsed for 3 minutes under running tap water at approximately 30° C. and a flow rate of approximately 1 liter/minute. The rod is then placed into a new test tube with 10 mL of neutralizer (2 wt. % hydrogen peroxide, 0.05 wt. % polyquat-11, and phosphoric acid to pH 3.1). The rod is removed and rinsed with the 30° C. tap water for 2 minutes. 8. The tress is soaked in a bowl of 30° C. tap water for 5 minutes to allow complete oxidation. The tress is then carefully unrolled from the rod without tension, starting from the bottom and keeping the spiral configuration intact. The tape is cut off the hair using scissors while the hair is still on the rod. […] 10. […] A glass container (10×11.5×4 in) is used in which clear plastic rulers are glued along the front and back walls. A copper wire is secured across the top of the container. The rulers should be lined up to provide a way to accurately measure the hair. A copper wire hook is placed through the tape at the top of the tress and hung on the wire. […] Waving Efficiency After the procedure, the lengths of the tresses were measured in a water bath. The shorter the tress, the tighter the curl and the better the product. The curl is measured from the end of the wax to the end of the curl. [formula] where Li=initial length of tress from wax end to tip Lo=length of tress when wrapped on the rod Lt=length of permed hair from wax end to tip, measured in the water

Series [2] can be described thus: pKa and free amine of the alkalizer. The class given is physicochemical. The conditions noted are these: at a pH of about 7.5.

“Also recorded” adds a separate entry of the source.

On to `N` [Ammonia], for which, in series [1], the “Percent Waving Efficiency” value is listed as 47.8% and the “Tress Length (cm) Lt” value is recorded as 15.5 ± 1.2 cm.
As for `NCCO` [Monoethanolamine], in series [1], the “Percent Waving Efficiency” value is recorded as 45.4% and the “Tress Length (cm) Lt” value stood at 16.1 ± 0.5 cm. Besides, the free amine result in series [2] is given as “one”. This molecule also displayed a free amine in series [2] (listed as monoethanolamine) of 1%.
Take `NC(CO)(CO)CO` [Tris, tris(hydroxymethyl)amino methane]: the “Tress Length (cm) Lt” value in series [1] came out at 15.7 ± 0.9 cm. Further, in series [1] (low pH waving lotion, in combination with a reducing agent), the “performance as alkalizer in waving lotion (in words)” value is given as “effective alkalizer; also recorded: better results than monoethanolamine”. Also, the free amine entry in series [2] is recorded as “about 22%”.
